In patent publication US20090069320A1, “Substituted 4-Amino-Quinazoline Compounds with Metabotropic Glutamate Receptor Regulating Activity and Uses Thereof” (Gruenenthal GmbH, priority 2006, published 2009):
Where a name gives a salt, the structure may show the parent alone.

Biological target: T1, mGluR5 receptor (Sus scrofa, UniProt I3LUI7)
T1 construct: 450 μg of protein from brain homogenate with 5 nM ^3[H]-MPEP; from tissue; host or cells: pig brain halves without medulla, cerebellum and pons
Experiment: [3H]-MPEP mGluR5 receptor binding assay (pig brain homogenate)
Conditions: 5 nM [3H]-MPEP; for inhibition at 10 µM / % Inhibition of mGluR5 Receptor (pig) [^3H]-MPEP Bond at 10 μM: 10 μM compound; for inhibition at 10 µM: read-out: % Inhibition of mGluR5 Receptor (pig) [^3H]-MPEP Bond at 10 μM; for IC50: read-out: IC50 mGluR5 Receptor (pig) [^3H]-MPEP Bond
Method in brief: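 Compounds at 10 μM competed with 5 nM [3H]-MPEP for binding to pig brain membranes (450 μg protein) for 60 min at room temperature in pH 8.0 Hepes buffer. Bound radioactivity was collected on glass-fibre filters and read by β-counting, with 10 μM unlabelled MPEP giving non-specific binding.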

T1 sequence (I3LUI7 19-1212): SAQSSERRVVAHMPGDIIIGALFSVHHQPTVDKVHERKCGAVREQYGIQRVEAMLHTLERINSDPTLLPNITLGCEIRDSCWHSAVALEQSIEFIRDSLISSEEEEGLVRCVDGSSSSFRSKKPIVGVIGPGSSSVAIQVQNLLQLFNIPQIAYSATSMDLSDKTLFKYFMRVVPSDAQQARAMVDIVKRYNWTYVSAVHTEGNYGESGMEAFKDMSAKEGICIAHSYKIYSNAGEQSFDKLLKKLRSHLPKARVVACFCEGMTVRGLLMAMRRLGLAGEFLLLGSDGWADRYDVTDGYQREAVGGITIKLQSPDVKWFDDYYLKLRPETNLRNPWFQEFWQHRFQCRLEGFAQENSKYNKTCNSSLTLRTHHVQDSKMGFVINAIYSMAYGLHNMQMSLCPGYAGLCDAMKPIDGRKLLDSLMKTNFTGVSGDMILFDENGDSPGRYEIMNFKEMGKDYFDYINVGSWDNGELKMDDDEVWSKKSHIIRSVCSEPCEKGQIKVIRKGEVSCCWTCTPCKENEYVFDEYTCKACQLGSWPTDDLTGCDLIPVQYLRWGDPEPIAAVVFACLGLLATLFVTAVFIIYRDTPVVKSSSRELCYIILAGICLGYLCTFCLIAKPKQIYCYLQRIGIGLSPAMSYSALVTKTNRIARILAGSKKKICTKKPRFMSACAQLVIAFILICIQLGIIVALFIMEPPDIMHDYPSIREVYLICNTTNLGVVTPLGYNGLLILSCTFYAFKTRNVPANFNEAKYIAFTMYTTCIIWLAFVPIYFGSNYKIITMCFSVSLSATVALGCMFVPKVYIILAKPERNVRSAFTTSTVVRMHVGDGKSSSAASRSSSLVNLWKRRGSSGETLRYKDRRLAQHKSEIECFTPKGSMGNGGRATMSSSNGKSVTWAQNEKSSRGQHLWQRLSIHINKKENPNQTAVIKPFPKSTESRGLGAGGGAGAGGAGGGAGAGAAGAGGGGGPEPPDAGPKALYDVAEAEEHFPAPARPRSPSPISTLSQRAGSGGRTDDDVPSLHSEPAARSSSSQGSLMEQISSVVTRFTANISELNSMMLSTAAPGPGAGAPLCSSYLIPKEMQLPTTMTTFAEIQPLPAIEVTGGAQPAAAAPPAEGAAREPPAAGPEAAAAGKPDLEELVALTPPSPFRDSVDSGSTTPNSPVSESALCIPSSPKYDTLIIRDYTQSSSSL

SMILES | inhibition at 10 µM | further results
CCCN(Cc1cccc(-c2ccc3ncnc(Nc4ccccc4)c3c2)c1)C(=O)Cc1ccccn1 [Example 106, N-[3-(4-phenylamino-quinazolin-6-yl)-benzyl]-N-propyl-2-pyridin-2-yl-acetamide] | 39% | –
CC(C)(C)Nc1ncnc2ccc(-c3ccc(F)c(CN(C4CC4)S(C)(=O)=O)c3)cc12 [Example 827, N-(5-(4-(tert-butylamino)quinazolin-6-yl)-2-fluorobenzyl)-N-cyclopropyl methane sulfonamide] | – | % Inhibition of mGluR5 Receptor (pig) [^3H]-MPEP Bond at 10 μM: 87%
O=C(c1ccccc1Cl)N(Cc1cccc(-c2ccc3ncnc(N4CCCC4)c3c2)c1)C1CC1 [Example 143, 2-chloro-N-cyclopropyl-N-[3-(4-pyrrolidin-1-yl-quinazolin-6-yl)-benzyl]-benzamide] | 71% | –
O=S(=O)(c1c(F)c(F)c(F)c(F)c1F)N(Cc1cc(-c2ccc3ncnc(NC4CC4)c3c2)ccc1Cl)C1CC1 [Example 802, N-(2-chloro-5-(4-(cyclopropylamino)quinazolin-6-yl)benzyl)-N-cyclopropyl-2,3,4,5,6-pentafluorobenzole sulfonamide] | – | % Inhibition of mGluR5 Receptor (pig) [^3H]-MPEP Bond at 10 μM: 97%
Cc1cccc(CNc2ncnc3ccc(-c4cccc(CN(C5CC5)S(C)(=O)=O)c4)cc23)c1 [Example 380, N-cyclopropyl-N-(3-(4-(3-methylbenzylamino)quinazolin-6-yl)benzyl)methane sulfonamide] | 46% | –
CC(=O)N(Cc1c(F)ccc(-c2ccc3ncnc(NC4CC4)c3c2)c1F)C1CC1 [Example 249, N-cyclopropyl-N-[3-(4-cyclopropylamino-quinazolin-6-yl)-2,6-difluoro-benzyl]-acetamide] | – | IC50: 140 nM
O=C(c1ccc(C(F)(F)F)cc1F)N(Cc1cccc(-c2ccc3ncnc(NC4CC4)c3c2)c1)C1CC1 [Example 177, N-cyclopropyl-N-[3-(4-cyclopropylamino-quinazolin-6-yl)-benzyl]-2-fluoro-4-trifluoromethyl-benzamide] | 97% | –
O=C(CC(F)(F)F)N(Cc1cccc(-c2ccc3ncnc(NC4CC4)c3c2)c1)C1CC1 [Example 205, N-cyclopropyl-N-[3-(4-cyclopropylamino-quinazolin-6-yl)-benzyl]-3,3,3-trifluoro-propionamide; hydrochloride] | – | IC50: 330 nM
CCCN(Cc1cccc(-c2ccc3ncnc(Nc4ccccc4)c3c2)c1)C(=O)CC#N [Example 112, 2-cyano-N-[3-(4-phenylamino-quinazolin-6-yl)-benzyl]-N-propyl-acetamide] | 33% | –

The next lines start with results.

inhibition at 10 µM | SMILES | further results
95% | O=C(Cc1ccccc1)N(Cc1cc(-c2ccc3ncnc(NC4CC4)c3c2)ccc1F)C1CC1 [Example 406, N-cyclopropyl-N-(5-(4-(cyclopropylamino)quinazolin-6-yl)-2-fluorobenzyl)-2-phenylacetamide] | –
73% | O=C(c1cccc(F)c1)N(Cc1cc(-c2ccc3ncnc(NC4CC4)c3c2)ccn1)C1CC1 [Example 795, N-cyclopropyl-N-((4-(4-(cyclopropylamino)quinazolin-6-yl)pyridin-2-yl)methyl)-3-fluorobenzamide] | –
88% | Cc1cc2ncnc(NC3CC3)c2cc1-c1cccc(CN(C(=O)c2ccc(C(F)(F)F)cc2F)C2CC2)c1 [Example 668, N-cyclopropyl-N-(3-(4-(cyclopropylamino)-7-methylquinazolin-6-yl)benzyl)-2-fluoro-4-(trifluoromethyl)benzamide] | –
31% | Cc1cc2ncnc(NC3CC3)c2cc1-c1cccc(CN(C2CC2)S(=O)(=O)c2cccc3cccnc23)c1 [Example 683, N-cyclopropyl-N-(3-(4-(cyclopropylamino)-7-methylquinazolin-6-yl)benzyl)quinoline-8-sulfonamide] | –
96% | O=C(c1ccccn1)N(Cc1cc(-c2ccc3ncnc(NC4CC4)c3c2)ccc1F)C1CC1 [Example 428, N-cyclopropyl-N-(5-(4-(cyclopropylamino)quinazolin-6-yl)-2-fluorobenzyl)picolinamide] | –
